Experimental findings from patent US7368287B2, “Use of L-α-lysophosphatidylcholine to obtain the differentiation of monocytes into mature dendritic cells in vitro” (Biomerieux, priority 2002, dated 2008) are described below.

Assay [1] concerns monocytes isolated from human peripheral blood. Briefly: Phenotype (CD83, HLA-DR, CD86 expression) by flow cytometry of monocytes differentiated in absence or presence of LPC. The assay is classed as cell-based. As to conditions: 6th day of differentiation; 40 μM LPC added on day 5 for 24 hours. As for the experimental part: Isolation, placing in culture and initiation of the differentiation of monocytes—The monocytes are isolated from human peripheral blood by means of first density gradient centrifugation (620 g; 20 minutes) in Ficoll-Hypaque, followed by second centrifugation (770 g; 20 minutes) in a 50% Percoll solution. The monocytes are then purified by immunomagnetic depletion (Dynal, Oslo, Norway), using a cocktail of anti-CD19 (hydridoma 4G7) (Becton Dickinson, Francklin Lakes, N.J., USA), anti-CD3 (OKT3, American Type Culture Collection, Rockeville, Md.) and anti-CD56 (NKH1, Beckman Coulter, Fullerton, Calif., USA) monoclonal antibodies. The monocytes thus obtained are then purified to at least 90%, as shown by the absence of CD1a markers and the presence of the CD14 marker. The differentiation of the monocytes into dendritic cells is initiated with 40 ng/ml of recombined human GM-CSF (Granulocyte-Macrophage Colony Stimulating Factor) and 250 U/ml of recombined human interleukin IL-4.
The monocytes are placed in culture in RPMI 1640 medium (Life Technologies, Rockeville, Md., USA) enriched with 2 mM of glutamine (Life Technologies), 10 mM of Hepes (Life Technologies), […] of gentamycin (Life Technologies) and 10% of lipoprotein-depleted fetal calf serum (LPDS, Sigma, St Quentin-Fallavier, France).
Treatment of the monocytes with LPC—5 days after the beginning of the differentiation of the monocytes, 40 μM of LPC (L-α-lysophosphatidylcholine; Sigma, St Quentin Fallavier, France) are added to the culture medium for 24 hours. Control cells are also obtained in the absence of LPC in the culture medium.
The cells used in this analysis are those obtained on the 6th day of differentiation according to the protocol described in example 1.
The phenotype of the “control” and “LPC” cells is analyzed by flow cytometry on a FACSCalibur (Becton Dickinson, Francklin Lakes, N.J., USA) using FITC (fluorosceine isothiocyanate)-conjugated anti-CD14, anti-HLA-DR and anti-CD80 and PE (phycoerythrin)-conjugated anti-CD1a, anti-CD83, anti-CD86 and anti-CD40 (Beckman Coulter). […]
On the technique in general: In flow cytometry, cells or beads pass a laser one at a time.

The test system of assay [2] is naïve allogenic T lymphocytes. Description: Stimulation of IL-2 and γIFN secretion by allogenic T lymphocytes (mixed leukocyte reaction, ELISA). The arrangement: unit not given here. The following applies: for Secretion of IL-2 by T lymphocytes / Secretion of γIFN by T lymphocytes: after 4 days; for Secretion of γIFN by T lymphocytes: Table 3; for Dendritic cell-induced secretion of γIFN by T lymphocytes: Table 8. It counts as cell-based, human. As for the experimental part: The “control” and “LPC” cells used in this analysis are those obtained after 6 days of differentiation according to the protocol described in example 1.
Naïve allogenic T lymphocytes are isolated from human peripheral blood. Peripheral blood mononuclear cells are isolated by density gradient centrifugation (600 g, 20 minutes) in the presence of Ficoll-Hypaque. After elimination of the monocytes on a Percoll gradient, the peripheral blood lymphocytes are found in the dense fraction. The T lymphocytes are purified by immunomagnetic depletion using a cocktail of anti-CD19 (antibody 4G7) (Becton Dickinson, Francklin Lakes, N.J., USA), anti-CD16 (antibody 3G8), anti-CD56 (antibody NKH1), anti-glycophorin A (antibody 11E4B7.6) and anti-CD14 (antibody RMPO52), monoclonal antibodies sold by Beckman Coulter.
The purified T lymphocytes are cultured in flat-bottomed 96-well culture plates with the “control” or “LPC” cells.
2×10^5T cells are cultured in 200 μl of culture medium according to a monocytes differentiated in the presence or absence of LPC/T cells ratio (DC/LT ratio) of 1:5, 1:10 or 1:20. After 4 days, 50 μl of the culture supernatant are used to determine the secretion of IL-2 (interleukin 2) and of γIFN (gamma interferon) using an ELISA kit (Endogen, Woburn, Mass., USA).
The inventors then used a PPARγ agonist, ciglitizone. A solution of ciglitizone (Sigma, 50 μM) was added to the culture medium on the fifth day of monocyte differentiation, as described in example 1, 15 minutes before the addition of a solution of LPC (40 μM, for […]). The cells obtained are “LPC+ciglitizone” cells. “Ciglitizone” cells were obtained according to the same protocol, but in the absence of LPC, and “LPC” cells were obtained as described in example 1, in the absence of ciglitizone.
The functional ability of these cells (“control”, “ciglitazone” and “LPC+ciglitazone” cells) to stimulate T lymphocytes (LT) were then analyzed. These cells were cultured as described in example 4, in the presence of purified allogenic T lymphocytes. The secretion of γIFN was measured as in example 4.
A general note: In an ELISA, binding on a coated surface is turned into a signal by an enzyme label.

Assay [3] has as its system Gi protein-coupled receptors. Briefly: Induction of CD86 by LPC after preincubation with pertussis toxin. The following applies: LPC cells = 100%; PTX 100 ng/ml for 3 hours before LPC. The assay is classed as cell-based, human. The protocol: The phenotype of the “control” and “LPC” cells is analyzed by flow cytometry on a FACSCalibur (Becton Dickinson, Francklin Lakes, N.J., USA) using FITC (fluorosceine isothiocyanate)-conjugated anti-CD14, anti-HLA-DR and anti-CD80 and PE (phycoerythrin)-conjugated anti-CD1a, anti-CD83, anti-CD86 and anti-CD40 (Beckman Coulter). According to the state of the art, monocytes preferentially have a CD14+ CD1a− phenotype, immature dendritic cells preferentially have a CD14− CD1a+CD86− phenotype, and mature dendritic cells preferentially have a CD14− CD1a intermediate—CD86+ phenotype.
Initially, in order to determine whether the receptors involved in the action of LPC in the differentiation of monocytes into mature dendritic cells belonged to the family of G protein-coupled receptors, PTX (pertussis toxin; 100 ng/ml), known to block Gi proteins, was added to the culture medium for 3 hours. The culture medium was then changed and the LPC was added as described in example 1.

For a further assay, the system named is BALB/c mice. Description: HEL-specific IgG in serum by ELISA after immunization. The assay is classed as in vivo, mouse. As to conditions: LPC 350 nmol co-injected with HEL, booster after 15 days; FIG. 1. As for the experimental part:
LPC stimulates the production of specific antibodies against a co-injected soluble antigen. LPC dissolved in PBS (350 nmol in 50 μl) is mixed with hen egg lysozyme (HEL, 1 mg/ml) and this mixture is injected into the plantar foot pad of BALB/c mice. The “HEL+LPC” batch of mice receives 50 μl of this mixture in the foot pads of the two hind feet. The “HEL” batch of mice receives 50 μl of HEL solution (1 mg/ml in PBS) in the two feet. After 15 days, a booster injection is given subcutaneously on the 2 flanks. The “HEL+LPC” batch receives, on each flank, 100 μl of a solution of LPC (5 mM) and of HEL (1 mg/ml) in PBS. The “HEL” batch receives, on each flank, 100 μl of a solution of HEL (1 mg/ml) in PBS. Two weeks later, blood is taken from the mice and the IgGs specific for the HEL antigen are assayed by ELISA with respect to a standard IgG solution range. The titration curves giving the absorbance (Abs) as a function of the logarithm of the serum dilution are represented in FIG. 1.

Take L-α-lysophosphatidylcholine [LPC]: in assay [1], the “Expression of CD83” value was 11.74, the “Expression of CD86” value is 759.69 and the “Expression of HLA-DR” value amounted to 146.31. Moreover, in assay [2] (DC/LT ratio 0), the “Secretion of IL-2 by T lymphocytes” value turned out to be 0, the “Secretion of γIFN by T lymphocytes” value turned out to be 0 and the “Dendritic cell-induced secretion of γIFN by T lymphocytes” value (“Dendritic cell-induced secretion” for short) is given as 0. In assay [2] (DC/LT ratio 0.05), the “Secretion of IL-2 by T lymphocytes” value was 23 ± 1, the “Secretion of γIFN by T lymphocytes” value came to 73 ± 47 and the “Dendritic cell-induced secretion” value is given as 750 ± 184. In assay [2] (DC/LT ratio 0.1), the “Secretion of IL-2 by T lymphocytes” value is on record as 47 ± 26, the “Secretion of γIFN by T lymphocytes” value was 439 ± 108 and the “Dendritic cell-induced secretion” value stood at 899 ± 124. Also, in assay [2] (DC/LT ratio 0.2), the “Secretion of IL-2 by T lymphocytes” value is 173 ± 31, the “Secretion of γIFN by T lymphocytes” value is on record as 795 ± 19 and the “Dendritic cell-induced secretion” value was found to be 1326 ± 248. Also, the “Induction of CD86” value in assay [3] came out at 100%. Also, the “Production of IgGs specific for the HEL antigen” value in the assay with BALB/c mice is “induces the synthesis of antibodies specific for the antigen”.
